According to patent US20190187129A1, “CANCER MODELING PLATFORMS AND METHODS OF USING THE SAME” (Wake Forest University Health Sciences, priority 2016, published 2019):
“Also recorded” adds a separate entry of the source.

Columns and labels:
[1] = tested on: mesothelioma organoids; assay: Biomarker-driven drug study on patient organoids (MTS, Annexin V/Ki67 IHC, H&E); format: cell-based, human; conditions: 0.1 μM, 1 μM, 10 μM; 96 hours
Method: (§1) 5 μm thick organoid sections were created from paraffin-embedded constructs, and then deparaffinized for staining. IHC was used to visualize biomarkers cytokeratin 5/6 (CK5/6), calretinin, and thrombomodulin. Blocking was performed by incubation under Dako Protein Block for 15 minutes. Primary antibodies CK5/6 (Abcam, ab17133, raised in mouse) and calretinin (Abcam, ab702, raised in rabbit) or CK5/6 and thrombomodulin (Abcam, ab109189, raised in rabbit) were applied to the sections on the slides at a 1:200 dilution in Dako Antibody Diluent and incubated at room temperature for 1 hour. Next, secondary Alexa Fluor 488 or Alexa Fluor 594 antibodies with appropriate species reactivity were applied to all samples at 1:200 in Dako Antibody Diluent and left at room temperature for 1 hour (anti-mouse Alexa Fluor 488 and anti-rabbit Alexa Fluor 594, Life Technologies, Carlsbad, Calif., A-11070). Sections were then incubated with Dapi for 5 minutes prior to coverslipping. […] Fluorescence images were taken using a Leica DM400B Compound Microscope and overlaid for analysis.
(§2) Tumor constructs were biofabricated once more, after which they were maintained for 3 days prior to drug screening. […] Drug effects were quantified by MTS assays and immunohistochemistry. MTS assays (CellTiter 96 One Solution Reagent Promega, Madison, Wis.) determined relative cell number by quantifying mitochondrial metabolism. Absorbance values were determined on a Molecular Devices SpectrumMax M5 (Molecular Devices) tunable plate reader system at a wavelength of 490 nm.
(§3) Immunohistochemisty staining was performed using biomarkers Annexin V and Ki67 on 5 μm thick organoid sections. […] Fluorescence images were taken using a Leica DM400B Compound Microscope, images were taken of sections next to each other in GFP for Annexin V and Ki67 and overlaid for analysis; Annexin V images were colored red (medium grey in black and white images) and Ki67 images were colored green (light grey in black and white images).

[2] = tested on: HCT116 organoids; assay: Biomarker-driven drug study on control organoids (MTS, Annexin V/Ki67 IHC, H&E); format: cell-based; conditions: 0.1 μM, 1 μM, 10 μM; 96 hours
Method: as §1, §2, §3

[3] = tested on: HCT116 cells; conditions: literature reference 31; cited from earlier work

## Nc1nccc2c1ncn2[C@@H]1C=C(CO)[C@@H](O)[C@H]1O [DZNep, 3-deazaneplanocin A]
[1]
  Annexin V and Ki67 immunohistochemistry: Annexin V appears to increase in mesothelioma with increase in DZNep concentration; also recorded: increasing trend in annexin V expression; also recorded: higher ratios of Annexin V to Ki67
  Hematoxylin and eosin staining, cell morphology: ghost cells and those without nuclei; also recorded: loss of normal morphology and appearance of ghost cells with no nuclei
  proliferation / mitochondrial metabolism (MTS assay): significant decrease in mesothelioma proliferation; also recorded: decrease in mitochondrial metabolism; also recorded: decreased mitochondrial metabolism
[2]
  Annexin V and Ki67 immunohistochemistry: minimal change in proliferation
  Hematoxylin and eosin staining, cell morphology: not present in any HCT116 treatments; also recorded: do not show this dose dependent change
  proliferation / mitochondrial metabolism (MTS assay): no significant decrease in HCT116 proliferation; also recorded: little effect; also recorded: do not appear to respond negatively
[3]
  effect on HCT116 cells upon treatment: cell cycle arrest, but not necessarily significant levels of cell death
